One assay has as its target T1, hTREX1 (Homo sapiens, UniProt Q9NSU2).
T1 construct: host or cells: HCT116 dual cells
T1 sequence (Q9NSU2 1-314): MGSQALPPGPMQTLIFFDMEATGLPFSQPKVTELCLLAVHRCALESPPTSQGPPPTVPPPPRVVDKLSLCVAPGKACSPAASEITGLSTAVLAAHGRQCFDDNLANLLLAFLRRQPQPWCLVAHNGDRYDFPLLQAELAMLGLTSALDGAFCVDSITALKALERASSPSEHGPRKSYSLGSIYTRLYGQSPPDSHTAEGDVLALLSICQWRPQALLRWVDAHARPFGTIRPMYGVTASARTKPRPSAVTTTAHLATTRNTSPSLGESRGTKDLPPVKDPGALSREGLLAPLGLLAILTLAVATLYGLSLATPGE
In words: hTREX1 HCT116 Cell Assay (HCT116 dual cells, Lucia luciferase reporter of Type I interferon induction). The class given is cell-based. The note with it: TREX1i 4 h before pBR322/BstNI transfection, read after 48 h. In short, it runs like this:
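HCT116 dual cells carrying an ISRE-type STAT1/STAT2-driven secreted Lucia luciferase reporter were pretreated with TREX1 inhibitor for 4 h (≤0.1% DMSO), then transfected with pBR322/BstNI DNA (100 ng/well, Lipofectamine LTX). Luciferase in medium read after 48 h at 37 °C.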
A general note: A reporter such as luciferase makes a cellular process visible.

A further assay has as its target T2, full length human TREX1 (Homo sapiens, UniProt Q9NSU2).
T2 construct: N-terminally His-Tev tagged full length human TREX1; made in house; host or cells: E. coli
T2 sequence (Q9NSU2 1-314): T1 sequence (Q9NSU2 1-314)
In words: hTREX1 Biochemical Assay (fluorescence, dsDNA substrate degradation). The note with it: biochemical, read-out: hTREX1 IC50. An outline of the steps:
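Cleavage of 60 nM TEX615/quencher-labelled dsDNA in pH 7.4 Tris buffer with 5 mM MgCl2, 1.0% DMSO, run 18 hours at 25° C, EDTA-quenched; fluorescence read-out.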

A further assay has as its target T3, full length mouse TREX1 (Mus musculus, UniProt Q91XB0).
T3 construct: N-terminally His-Tev tagged full length mouse TREX1; made in house; host or cells: E. coli
T3 sequence (Q91XB0 1-314): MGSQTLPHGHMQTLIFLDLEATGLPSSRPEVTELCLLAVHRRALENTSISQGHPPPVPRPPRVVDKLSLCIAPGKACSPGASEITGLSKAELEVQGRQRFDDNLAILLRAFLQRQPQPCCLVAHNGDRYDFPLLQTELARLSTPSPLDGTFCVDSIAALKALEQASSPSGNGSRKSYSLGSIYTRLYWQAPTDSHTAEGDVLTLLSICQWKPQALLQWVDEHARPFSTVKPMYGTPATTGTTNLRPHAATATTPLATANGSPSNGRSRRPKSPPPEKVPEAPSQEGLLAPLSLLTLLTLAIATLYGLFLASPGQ
In words: mTREX1 Biochemical Assay (fluorescence, dsDNA substrate degradation). The note with it: biochemical, read-out: mTREX1 IC50. An outline of the steps:
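Reaction run 18 h at 25° C. with 60 nM TEX615/quencher-labelled dsDNA and 6 pM mouse TREX1 in Tris buffer (pH 7.4, 5 mM MgCl2, 1.0% DMSO), enzyme having sat 4 h with compound across 10 concentrations. EDTA quench; substrate degradation measured as fluorescence increase.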

Assay [1] deals with T4, human TREX2 (residues M44-A279) (Homo sapiens, UniProt Q9BQ50).
T4 construct: human TREX2 (residues M44-A279, expressed in E. coli); made in house; host or cells: E. coli
T4 sequence (Q9BQ50 44-279 isoform Q9BQ50-1): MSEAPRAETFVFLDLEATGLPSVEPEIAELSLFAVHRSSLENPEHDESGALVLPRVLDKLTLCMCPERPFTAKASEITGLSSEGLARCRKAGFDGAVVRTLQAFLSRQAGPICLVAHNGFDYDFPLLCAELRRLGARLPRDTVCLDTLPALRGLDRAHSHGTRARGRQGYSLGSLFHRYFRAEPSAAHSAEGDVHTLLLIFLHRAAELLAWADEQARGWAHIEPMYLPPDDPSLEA
The assay is described as follows: hTREX2 Biochemical Assay (fluorescence, dsDNA substrate degradation). As to conditions: biochemical selectivity for hTREX1 vs hTREX2. An outline of the steps:
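N-His-Tev E. coli enzyme (50 pM) pre-incubated with compound 4 h at 25 °C, then 60 nM TEX615/quencher dsDNA added; 18 h at 25 °C, pH 7.4 Tris buffer with 5 mM MgCl2, 1.0% DMSO. EDTA-quenched; fluorescence 570 ex/615 em from liberated fluorophore, 10-point dose-response.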

Broadly, the IC50 is the midpoint of a concentration-inhibition curve. For the compound `CC(c1nc(C(=O)Nc2cnoc2)c(O)c(=O)n1C)C(c1cn[nH]c1)c1ccccc1C#N` (single isomer, unassigned) [Example 12 D1E1], the IC50 against hTREX1 was 10 to 100 nM; at full length human TREX1, < 1 nM; at full length mouse TREX1 it was 1 to 10 nM. Further, the “hTREX1 vs hTREX2 selectivity” value in assay [1] is reported as “C (C = >50 fold selective for hTREX1)”.
The corresponding values for `CC(c1nc(C(=O)Nc2cnoc2)c(O)c(=O)n1C)C(c1cnn(C)c1)c1cc(C(F)(F)F)ccc1C#N` (single isomer, unassigned) [Example 29 D1E1] are < 10 nM, < 1 nM, 1 to 10 nM and “C (C = >50 fold selective for hTREX1)”.
The corresponding values for `CC(c1nc(C(=O)Nc2cnoc2)c(O)c(=O)n1C)C(c1cnn(CCO)c1)c1ccccc1C#N` (single isomer, unassigned) [Example 35 D1E1] are > 100 nM, < 1 nM, 1 to 10 nM and “C (C = >50 fold selective for hTREX1)”.
In the same order, the values of `CC(c1nc(C(=O)Nc2cnoc2)c(O)c(=O)n1C)C(c1cnn(C)c1)c1ccccc1C#N` (single isomer, unassigned) [Example 2 D1E2] are > 100 nM, > 10 nM, > 10 nM and “A (A = <25 fold selective for hTREX1)”.
Turning to `Cc1cc(C(c2cc(F)ccc2C#N)C(C)c2nc(C(=O)Nc3cnoc3)c(O)c(=O)n2C)nn1C` (single isomer, unassigned) [Example 112 D1E1], the results for the concentration for half-maximal inhibition (IC50) against hTREX1, at full length human TREX1 and on full length mouse TREX1 were 10 to 100 nM, < 1 nM and 1 to 10 nM, respectively. For the same compound, the “hTREX1 vs hTREX2 selectivity” value in assay [1] was “C (C = >50 fold selective for hTREX1)”.
In the same order, the values of `CC(c1nc(C(=O)Nc2cnoc2)c(O)c(=O)n1C)C(c1cnn(CC(C)(C)C#N)c1)c1cc(F)ccc1Cl` (single isomer, unassigned) [Example 99 D1E1] are > 100 nM, 1 to 10 nM, > 10 nM and “A (A = <25 fold selective for hTREX1)”.
For the compound `CC(c1nc(C(=O)Nc2cnoc2)c(O)c(=O)n1C)C(c1cn[nH]c1)c1ccccc1C#N` (single isomer, unassigned) [Example 12 D2E1], the IC50 on hTREX1 is > 100 nM; at full length human TREX1, 1 to 10 nM; at full length mouse TREX1 it was > 10 nM. Further, the “hTREX1 vs hTREX2 selectivity” value in assay [1] is recorded as “C (C = >50 fold selective for hTREX1)”.
The corresponding values for `CC(c1nc(C(=O)Nc2cnoc2)c(O)c(=O)n1C)C(c1cnn(CCOC(F)(F)F)c1)c1cc(F)ccc1Cl` (single isomer, unassigned) [Example 98 D1E1] are > 100 nM, 1 to 10 nM, 1 to 10 nM and “B (B = 25 to 50-fold selective for hTREX1)”.
The corresponding values for `CCn1cc(C(c2ccccc2C#N)C(C)c2nc(C(=O)Nc3cnoc3)c(O)c(=O)n2C)c(C)n1` (single isomer, unassigned) [Example 70 D1E1] are < 10 nM, < 1 nM, < 1 nM and “C (C = >50 fold selective for hTREX1)”.
The corresponding values for `Cc1cnc(C)c(C(c2ccccc2C#N)C(C)c2nc(C(=O)Nc3cnoc3)c(O)c(=O)n2C)n1` (single isomer, unassigned) [Example 82 D1E1] are < 10 nM, < 1 nM, 1 to 10 nM and “C (C = >50 fold selective for hTREX1)”.
Take `CCn1cc(C(c2ccccc2Cl)C(C)c2nc(C(=O)Nc3cnoc3)c(O)c(=O)n2C)cn1` (single isomer, unassigned) [Example 85 D2E1]: the half-inhibitory concentration (IC50) is > 100 nM against hTREX1, > 10 nM at full length human TREX1 and > 10 nM at full length mouse TREX1. For the same compound, the “hTREX1 vs hTREX2 selectivity” value in assay [1] is listed as “A (A = <25 fold selective for hTREX1)”.
`COCCn1cc(C(c2cc(F)ccc2Cl)C(C)c2nc(C(=O)Nc3cnoc3)c(O)c(=O)n2C)cn1` (single isomer, unassigned) [Example 97 D1E1]: the figures for the IC50 on hTREX1, on full length human TREX1 and at full length mouse TREX1 were > 100 nM, 1 to 10 nM and 1 to 10 nM, respectively. Moreover, the “hTREX1 vs hTREX2 selectivity” value in assay [1] was “C (C = >50 fold selective for hTREX1)”.
In the case of `Cc1cnc(C)c(C(c2ccccc2C#N)C(C)c2nc(C(=O)Nc3cnoc3)c(O)c(=O)n2C)n1` (single isomer, unassigned) [Example 82 D2E1], the IC50 is > 100 nM against hTREX1, 1 to 10 nM at full length human TREX1 and > 10 nM on full length mouse TREX1. The “hTREX1 vs hTREX2 selectivity” value in assay [1] is on record as “C (C = >50 fold selective for hTREX1)”.
In the same order, the values of `CC(c1nc(C(=O)Nc2cnoc2)c(O)c(=O)n1C)C(c1cc(F)ccc1Cl)c1cn(C)nc1C#N` (single isomer, unassigned) [Example 89 D1E2] are < 10 nM, < 1 nM, 1 to 10 nM and “C (C = >50 fold selective for hTREX1)”.
In the same order, the values of `CC(c1nc(C(=O)Nc2cnoc2)c(O)c(=O)n1C)C(c1cnc(C(F)(F)F)cn1)c1ccccc1C#N` (single isomer, unassigned) [Example 118 D2E1] are > 100 nM, 1 to 10 nM, > 10 nM and “B (B = 25 to 50-fold selective for hTREX1)”.
For the compound `COC(C)(C)Cn1cc(C(c2cc(F)ccc2Cl)C(C)c2nc(C(=O)Nc3cnoc3)c(O)c(=O)n2C)cn1` (single isomer, unassigned) [Example 93 D1E1], the IC50 against hTREX1 was in the range of 10 to 100 nM; at full length human TREX1, 1 to 10 nM; at full length mouse TREX1 it was 1 to 10 nM. Besides, the “hTREX1 vs hTREX2 selectivity” value in assay [1] is reported as “B (B = 25 to 50-fold selective for hTREX1)”.
`COCCn1cc(C(c2ccccc2C#N)C(C)c2nc(C(=O)Nc3cnoc3)c(O)c(=O)n2C)cn1` (single isomer, unassigned) [Example 9 D1E1]: the half-maximal inhibitory concentration (IC50) is 10 to 100 nM at hTREX1, < 1 nM at full length human TREX1 and 1 to 10 nM on full length mouse TREX1. Besides, the “hTREX1 vs hTREX2 selectivity” value in assay [1] is given as “C (C = >50 fold selective for hTREX1)”.
In the same order, the values of `Cc1cc(C)n(C(c2ccccc2Cl)C(C)c2nc(C(=O)Nc3cnoc3)c(O)c(=O)n2C)n1` (single isomer, unassigned) [Example 136 D1E2] are 10 to 100 nM, < 1 nM, > 10 nM and “B (B = 25 to 50-fold selective for hTREX1)”.
The corresponding values for `CC(c1nc(C(=O)Nc2cnoc2)c(O)c(=O)n1C)C(c1cnn(C)c1)c1ccccc1Cl` (single isomer, unassigned) [Example 77 D2E1] are > 100 nM, > 10 nM, > 10 nM and “A (A = <25 fold selective for hTREX1)”.
In the same order, the values of `CCn1cc(C(c2ccccc2Cl)C(C)c2nc(C(=O)Nc3cnoc3)c(O)c(=O)n2C)cn1` (single isomer, unassigned) [Example 85 D1E1] are 10 to 100 nM, < 1 nM, < 1 nM and “B (B = 25 to 50-fold selective for hTREX1)”.

For the origin of these results see patent US20240246946A1, “MODULATORS OF TREX1” (Constellation Pharmaceuticals, Inc., priority 2021, published 2024).
